According to paper doi:10.1101/2021.02.13.431008v1 (biorxiv, 2021):
pIC50: −log10 of the molar value.

Assays:
[1] = biological target: T1, SARS-CoV-2 PLpro (papain-like protease) (Severe acute respiratory syndrome coronavirus 2, UniProt P0DTD1); conditions: binder
[2] = biological target: T1, SARS-CoV-2 PLpro (papain-like protease); experiment: biochemical

| Compound | Ave kd [1] [s⁻¹] | pIC50 [2] |
| --- | --- | --- |
| Cc1ccc(NC2CNC2)cc1C(=O)N[C@H](C)c1cccc(-c2ccc(CNC3CCCC3)s2)c1 [XR8-23] | 0.124 |  |
| Cc1ccc(NC2CNC2)cc1C(=O)N[C@H](C)c1cccc2ccccc12 [ZN2-184] | 0.349 |  |
| Cc1ccc(NC2CNC2)cc1C(=O)N[C@H](C)c1cccc(-c2cccs2)c1 [ZN3-80] | 0.327 |  |
| CC(C)c1cc(C(C)C)c(CC(=O)NS(=O)(=O)Oc2c(C(C)C)cccc2C(C)C)c(C(C)C)c1 [avasimibe] |  | < 4.70 |
| CCOc1nc2cccc(C(=O)O)c2n1Cc1ccc(-c2ccccc2-c2nnn[nH]2)cc1 [candesartan] |  | < 4.70 |
